According to patent US12528812B2 (Genentech, Inc., priority 2020, dated 2026):
Where two headings read alike, the source gives them in different places.

Legend:
[1] = test system: IL-13-stimulated STAT6 phosphorylation in human lung bronchial epithelial BEAS-2B cell line; assay: P-STAT6 BEAS-2B + IL-13 cell assay; format: cell-based; conditions: BEAS2B cells, IL13 stimulation, read-out: Cellular JAK1 PSTAT6 BEAS2B + IL13
Procedure, shortened: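 Phospho-STAT6 (Tyr641) was quantified in lysates by MSD electrochemiluminescence after human IL-13 challenge (250 ng/mL stock, 15 min, 37 °C). Before that, BEAS-2B cells cultured 48 h had 1 h compound exposure over 10 concentrations. Percent of control was fitted to a four-parameter logistic model to give IC50.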

[2] = target: T1, recombinant human JAK1 kinase domain protein (Residues 854-1154) (Homo sapiens, UniProt P23458); assay: JAK1 biochemical assay (LabChip mobility shift, Ki); conditions: read-out: Biochem JAK1 Ki
T1 construct: human JAK1 kinase domain protein (Residues 854-1154); purchased Proteros Biostructures GmbH (Martinsried, Germany); host or cells: insect cells

[3] = target: Recombinant human JAK2 kinase domain protein (Residues 812-1132) (Homo sapiens, UniProt O60674); assay: JAK2 biochemical assay (LabChip mobility shift, Ki); conditions: Biochem JAK2 Ki
Sequence of Recombinant human JAK2 kinase domain protein (Residues 812-1132) (O60674 812-1132): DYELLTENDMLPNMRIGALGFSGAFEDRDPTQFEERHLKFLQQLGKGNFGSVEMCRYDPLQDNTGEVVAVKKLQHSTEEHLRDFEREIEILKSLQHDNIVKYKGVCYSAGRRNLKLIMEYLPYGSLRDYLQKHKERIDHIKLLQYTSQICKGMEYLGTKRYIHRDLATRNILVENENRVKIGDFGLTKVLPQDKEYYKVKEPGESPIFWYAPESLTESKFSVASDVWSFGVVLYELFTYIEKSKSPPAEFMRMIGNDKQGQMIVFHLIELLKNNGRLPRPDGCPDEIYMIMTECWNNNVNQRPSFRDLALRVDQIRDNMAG
Description: The in vitro biochemical assays quantify JAK-catalyzed phosphorylation of a synthetic peptide, as detected using a LabChip® EZ Reader II microfluidic mobility shift instrument (PerkinElmer; Waltham, MA). […] Y-1B is fluorescently labeled on the N-terminus with 5-FAM (5-carboxyfluorescein) and contains a single tyrosine residue (Y) that can be phosphorylated by JAK activity. The substrate peptide stock is prepared in DMSO at 5 mM. […] In each titration experiment, test compound was tested in duplicate at each of the twelve concentrations. Blank reactions contained ATP, peptide, and DMSO, but no JAK or test compound, whereas uninhibited control reactions contained ATP, peptide, JAK, and DMSO, but no test compound.
Peptide plus ATP mixture (24 μL) was added to 1 μL of test compound in DMSO (or DMSO alone). The reactions were initiated by adding 25 μL of JAK enzyme to the inhibitor/peptide/ATP mixture before thoroughly mixing the resultant solution. Reactions were incubated at room temperature (22° C.-23° C.) in a final volume of 50 μL per well in 384-well plates. After a 30-minute incubation, the reactions were stopped by adding 25 μL of 150 mM ethylenediaminetetraacetic acid in 100 mM HEPES buffer (pH 7.2) containing 0.015% Brij 35 to each well.
In each reaction, the residual Y-1B substrate and the phospho-peptide product generated were separated using the EZ Reader II instrument. Electrophoretic separation of molecules of product from molecules of substrate was achieved using downstream and upstream voltages of −500 and −2600 V, respectively, at an operating pressure of −1.3 psi.
The extent (or percent) of conversion of substrate to product was calculated from the corresponding peak heights in the electropherogram using HTS Well Analyzer software, Version 5.2 (PerkinElmer), and the following equation (Equation 1): conversion=[P÷(S+P)]×100 Equation 1% where S and P represent the peak heights of the substrate and product, respectively. After any baseline signal from blank wells containing no JAK was subtracted from the signal of all test wells, the % conversion data were converted to fractional activity as shown in Equation 2, where vi and vo are the % conversion in the presence and absence of test compound, respectively.

T1 sequence (P23458 854-1154): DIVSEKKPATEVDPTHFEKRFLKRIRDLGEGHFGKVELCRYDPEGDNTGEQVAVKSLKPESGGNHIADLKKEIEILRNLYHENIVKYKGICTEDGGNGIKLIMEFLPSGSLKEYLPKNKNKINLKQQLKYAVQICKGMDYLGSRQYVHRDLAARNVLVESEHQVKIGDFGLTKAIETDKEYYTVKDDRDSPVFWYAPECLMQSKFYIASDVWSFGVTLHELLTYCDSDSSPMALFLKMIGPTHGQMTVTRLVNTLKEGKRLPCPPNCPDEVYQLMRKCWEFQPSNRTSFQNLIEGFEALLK

Row | Structure (SMILES) | IC50 [1] [nM] | Ki [2] [nM] | Ki [3] [nM] | IC50 ([1]; Homo sapiens, BEAS-2B) [nM]
1 | Cn1cc(NC(=O)c2cnn3cccnc23)c(-c2cc(Oc3cnn(C4CC(O)C4)c3)ccc2OC(F)F)n1 (stereo not drawn) [Example 119, N-[3-[2-(difluoromethoxy)-5-[1-(3-hydroxycyclobutyl)pyrazol-4-yl]oxy-phenyl]-1-methyl-pyrazol-4-yl]pyrazolo[1,5-a]pyrimidine-3-carboxamide] | 41 | 0.9 | 0.52 | 
2 | NCc1cc(Oc2ccc(OC(F)F)c(-c3n[nH]cc3NC(=O)c3cnn4cccnc34)c2)ccc1C(F)(F)F [Example 52, N-[3-[5-[3-(aminomethyl)-4-(trifluoromethyl)phenoxy]-2-(difluoromethoxy)phenyl]-1H-pyrazol-4-yl]pyrazolo[1,5-a]pyrimidine-3-carboxamide] |  | 3 | 2.3 | 91
3 | Cn1cc(NC(=O)c2cnn3cccnc23)c(-c2cc(Oc3cccc(C4CNC4)c3)ccc2OC(F)F)n1 [Example 87, N-[3-[5-[3-(azetidin-3-yl)phenoxy]-2-(difluoromethoxy)phenyl]-1-methyl-pyrazol-4-yl]pyrazolo[1,5-a]pyrimidine-3-carboxamide] |  | 0.26 | 0.41 | 36
4 | O=C(Nc1c[nH]nc1-c1cc(Oc2cccc(CNC3COC3)c2)ccc1OC(F)F)c1cnn2cccnc12 [Example 11, N-[3-[2-(difluoromethoxy)-5-[3-[(oxetan-3-ylamino)methyl]phenoxy]phenyl]-1H-pyrazol-4-yl]pyrazolo[1,5-a]pyrimidine-3-carboxamide] |  | 1 | 0.69 | 190
5 | Cc1ccc(Oc2ccc(OC(F)F)c(-c3nn(C)cc3NC(=O)c3cnn4cccnc34)c2)cc1C(=O)N1CCN(C)CC1 [Example 50, N-[3-[2-(difluoromethoxy)-5-[4-methyl-3-(4-methylpiperazine-1-carbonyl)phenoxy]phenyl]-1-methyl-pyrazol-4-yl]pyrazolo[1,5-a]pyrimidine-3-carboxamide] |  | 0.64 | 0.46 | 35
6 | Cn1cc(NC(=O)c2cnn3cccnc23)c(-c2cc(Oc3cc(C(F)(F)F)cc(C4(O)CNC4)c3)ccc2OC(F)F)n1 [Example 105, N-[3-[2-(difluoromethoxy)-5-[3-(3-hydroxyazetidin-3-yl)-5-(trifluoromethyl)phenoxy]phenyl]-1-methyl-pyrazol-4-yl]pyrazolo[1,5-a]pyrimidine-3-carboxamide] |  | 0.49 | 0.43 | 81
7 | CCn1cc(NC(=O)c2cnn3cccnc23)c(-c2cc(Oc3cccc(C4(O)CN(C)C4)c3)ccc2OC(F)F)n1 [Example 108, N-[3-[2-(difluoromethoxy)-5-[3-(3-hydroxy-l-methyl-azetidin-3-yl)phenoxy]phenyl]-1-ethyl-pyrazol-4-yl]pyrazolo[1,5-a]pyrimidine-3-carboxamide] |  | 0.69 | 0.72 | 60
8 | Cn1cc(NC(=O)c2cnn3cccnc23)c(-c2cc(Oc3cnn(CC4CNC4)c3)ccc2OC(F)F)n1 [Example 123, N-[3-[5-[1-(azetidin-3-ylmethyl)pyrazol-4-yl]oxy-2-(difluoromethoxy)phenyl]-1-methyl-pyrazol-4-yl]pyrazolo[1,5-a]pyrimidine-3-carboxamide] |  | 0.61 | 0.74 | 370
9 | Cn1cc(NC(=O)c2cnn3cccnc23)c(-c2cc(Oc3cccc(C(=O)N4CCNCC4)c3)ccc2OC(F)F)n1 [Example 80, N-[3-[2-(difluoromethoxy)-5-[3-(piperazine-1-carbonyl)phenoxy]phenyl]-1-methyl-pyrazol-4-yl]pyrazolo[1,5-a]pyrimidine-3-carboxamide] |  | 0.35 | 0.35 | 61
10 | CN1CCN(C(=O)Cn2cc(Oc3ccc(OC(F)F)c(-c4nn(C)cc4NC(=O)c4cnn5cccnc45)c3)cn2)CC1 [Example 90, N-[3-[2-(difluoromethoxy)-5-[1-[2-(4-methylpiperazin-1-yl)-2-oxo-ethyl]pyrazol-4-yl]oxy-phenyl]-1-methyl-pyrazol-4-yl]pyrazolo[1,5-a]pyrimidine-3-carboxamide] |  | 0.59 | 0.31 | 52
11 | Cn1cc(NC(=O)c2cnn3cccnc23)c(-c2cc(Oc3ccc(CN4CCC4CO)cc3)ccc2OC(F)F)n1 (racemic) [Example 168, N-[3-[2-(difluoromethoxy)-5-[4-[[rac-(2S)-2-(hydroxymethyl)azetidin-1-yl]methyl]phenoxy]phenyl]-1-methyl-pyrazol-4-yl]pyrazolo[1,5-a]pyrimidine-3-carboxamide] |  | 1.3 | 0.58 | 30
12 | Cn1cc(NC(=O)c2cnn3cccnc23)c(-c2cc(Oc3ccc4c(c3)CCNC4)ccc2OC(F)F)n1 [Example 63, N-[3-[2-(difluoromethoxy)-5-(1,2,3,4-tetrahydroisoquinolin-6-yloxy)phenyl]-1-methyl-pyrazol-4-yl]pyrazolo[1,5-a]pyrimidine-3-carboxamide] |  | 1.7 | 0.42 | 47
13 | CN(CC(=O)N(C)C)Cc1cccc(Oc2ccc(OC(F)F)c(-c3nn(C)cc3NC(=O)c3cnn4cccnc34)c2)c1 [Example 60] |  | 0.81 | 0.75 | 35
14 | CN1CCN(C(=O)c2ccc(Oc3ccc(OC(F)F)c(-c4nn(C)cc4NC(=O)c4cnn5cccnc45)c3)cc2)CC1 [Example 86, N-[3-[2-(difluoromethoxy)-5-[4-(4-methylpiperazine-1-carbonyl)phenoxy]phenyl]-1-methyl-pyrazol-4-yl]pyrazolo[1,5-a]pyrimidine-3-carboxamide] |  | 1.1 | 0.56 | 77
15 | CN1CC[C@@H](O)[C@H](n2cc(Oc3ccc(OC(F)F)c(-c4nn(C)cc4NC(=O)c4cnn5cccnc45)c3)cn2)C1 (stereo in doubt) [Example 185, N-[3-[2-(difluoromethoxy)-5-[1-[rac-(3R,4R)-4-hydroxy-l-methyl-3-piperidyl]pyrazol-4-yl]oxy-phenyl]-1-methyl-pyrazol-4-yl]pyrazolo[1,5-a]pyrimidine-3-carboxamide] |  | 0.33 | 0.21 | 62
16 | CN1CCCC(O)(Cn2cc(Oc3ccc(OC(F)F)c(-c4nn(C)cc4NC(=O)c4cnn5cccnc45)c3)cn2)C1 (stereo not drawn) [Example 194, N-[3-[2-(difluoromethoxy)-5-[1-[(3-hydroxy-l-methyl-3-piperidyl)methyl]pyrazol-4-yl]oxy-phenyl]-1-methyl-pyrazol-4-yl]pyrazolo[1,5-a]pyrimidine-3-carboxamide] | 64 | 2.1 | 1.4 | 
17 | Cn1cc(NC(=O)c2cnn3cccnc23)c(-c2cc(Oc3cnn([C@H]4CCNC4)c3)ccc2OC(F)F)n1 (racemic) [Example 144, N-[3-[2-(difluoromethoxy)-5-[1-[rac-(3S)-pyrrolidin-3-yl]pyrazol-4-yl]oxy-phenyl]-1-methyl-pyrazol-4-yl]pyrazolo[1,5-a]pyrimidine-3-carboxamide] |  | 3.9 | 3.7 | 160
18 | Cn1cc(NC(=O)c2cnn3cccnc23)c(-c2cc(Oc3cnn(CCN)c3)ccc2OC(F)F)n1 [Example 126, N-[3-[5-[1-(2-aminoethyl)pyrazol-4-yl]oxy-2-(difluoromethoxy)phenyl]-1-methyl-pyrazol-4-yl]pyrazolo[1,5-a]pyrimidine-3-carboxamide] |  | 1.1 | 0.91 | 67
19 | NCc1ccnn1-c1cccc(Oc2ccc(OC(F)F)c(-c3n[nH]cc3NC(=O)c3cnn4cccnc34)c2)c1 [Example 65, N-[3-[5-[3-[5-(aminomethyl)pyrazol-1-yl]phenoxy]-2-(difluoromethoxy)phenyl]-1H-pyrazol-4-yl]pyrazolo[1,5-a]pyrimidine-3-carboxamide] |  | 0.85 | 0.63 | 120
20 | CN1CC(O)(c2cncc(Oc3ccc(OC(F)F)c(-c4nn(C)cc4NC(=O)c4cnn5cccnc45)c3)c2)C1 [Example 189, N-[3-[2-(difluoromethoxy)-5-[[5-(3-hydroxy-l-methyl-azetidin-3-yl)-3-pyridyl]oxy]phenyl]-1-methyl-pyrazol-4-yl]pyrazolo[1,5-a]pyrimidine-3-carboxamide] |  | 0.57 | 0.39 | 78
21 | NCc1cccc(Oc2ccc(OC(F)F)c(-c3n[nH]cc3NC(=O)c3cnn4cccnc34)c2)c1F [Example 24, N-[3-[5-[3-(aminomethyl)-2-fluoro-phenoxy]-2-(difluoromethoxy)phenyl]-1H-pyrazol-4-yl]pyrazolo[1,5-a]pyrimidine-3-carboxamide] |  | 0.64 | 0.56 | 22
22 | Cn1cc(NC(=O)c2cnn3cccnc23)c(-c2cc(Oc3ccc4c(c3)CN(C3COC3)CC4)ccc2OC(F)F)n1 [Example 69, N-[3-[2-(difluoromethoxy)-5-[[2-(oxetan-3-yl)-3,4-dihydro-1H-isoquinolin-7-yl]oxy]phenyl]-1-methyl-pyrazol-4-yl]pyrazolo[1,5-a]pyrimidine-3-carboxamide] |  | 1.3 | 0.53 | 37
23 | O=C(Nc1cn(C2COC2)nc1-c1cc(Oc2ccccc2)ccc1OC(F)F)c1cnn2cccnc12 [Example 56, N-[3-[2-(difluoromethoxy)-5-phenoxy-phenyl]-1-(oxetan-3-yl)pyrazol-4-yl]pyrazolo[1,5-a]pyrimidine-3-carboxamide] |  | 0.35 | 0.25 | 15
